The text below walks through data of ChEMBL document CHEMBL3832025, “DailyMed|setid=d3417226-1f42-40cd-82ac-bc31ddf79b97 | OFLOXACIN - ofloxacin tablet, film coated|PD-Rx Pharmaceuticals, Inc”.

In general, AUC refers to the area under the concentration-time curve, a measure of exposure. Usually Cmax stands for the highest concentration seen after dosing. One may read the Tmax as the time at which the peak concentration occurs. The bioavailability is the share of a dose that reaches the circulation, judged against a reference dose that is usually intravenous. Read a low bioavailability as little systemic uptake.

What all share (assay type): ADME, organism-based
The nature of series [1]: (§1) Steady-state pharmacokinetic parameters for Ofloxacin following multiple oral and intravenous (IV) doses of Ofloxacin to healthy 70 to 80 kg male volunteers. Set-up: dose 200 mg, dose 400 mg, dose 300 mg, route oral, route iv. As to conditions: human, in vivo, dosed compound id 33, dosed compound name OFLOXACIN, regimen Multiple dose; for AUC: gender male, tissue Serum.

The subject of series [2] is Homo sapiens. Described as §1. More on the design: dose 200 mg, dose 400 mg, dose 300 mg, route oral, route iv. As to conditions: in vivo, dosed compound id 33, dosed compound name OFLOXACIN, gender male, regimen Multiple dose, tissue Serum.
Series [3] is described as follows: (§2) Pharmcokinetic parameters for Ofloxacin following single oral dose administration of Ofloxacin to healthy male volunteers, body mass 70 to 80 kg. Set-up: dose 300 mg, dose 200 mg, dose 400 mg, route oral. The note with it: human, in vivo, dosed compound id 33, dosed compound name OFLOXACIN, regimen Single dose.
Series [4] concerns Homo sapiens. Described as §2. More on the design: dose 300 mg, dose 200 mg, dose 400 mg, route oral. The note with it: in vivo, po, dosed compound id 33, dosed compound name OFLOXACIN, gender male, regimen Single dose, tissue Serum.
The mark [5] stands for this setting: male, route oral, tissue Plasma.

Where “and” joins values, the source holds several entries; their conditions need not be identical. Identical values can stand only once.

As for `CC1COc2c(N3CCN(C)CC3)c(F)cc3c(=O)c(C(=O)O)cn1c23` (stereo not given) [OFLOXACIN], the AUC in series [1] (read-out: AUC(0 to 12) ss) turned out to be 41200 ng·h/mL. For the same compound, in series [1] (read-out: AUC(0 to inf) ss), the AUC came to 61000 ng·h/mL. For the same compound, in series [1] (male, route oral, tissue Plasma, read-out: t1/2 ss), the half-life was in the range of 4 to 5 h. Also, the “AUC(0 to 12) ss” value in series [2] (study dosing duration 60 minutes) is 43500 ng·h/mL. For the same compound, the Cmax ss in series [2] (po) was 2200 ng/mL and 3600 ng/mL and 4600 ng/mL. The compound further had a Cmax in series [3] (po, gender male, tissue Serum) of 1500 ng/mL. Further, in series [3] (setting [5]), the Tmax was in the range of 1 to 2 h and the bioavailability came to 98%. In addition, in series [4], the “AUC(0 to inf)” value is 14100 ng·h/mL and 21200 ng·h/mL and 31400 ng·h/mL; the Cmax is 2400 ng/mL and 2900 ng/mL.
